The values below come from US9458153B2, “Dihydroquinolizinones for the treatment and prophylaxis of hepatitis B virus infection” (Hoffmann-La Roche Inc., priority 2014, dated 2016).

The experiment relates to HBsAg. Put plainly: HBsAg assay (chemiluminescence immunoassay of secreted HBsAg in HepG2.2.15 culture supernatant). The conditions noted are these: HepG2.2.15 cells, CLIA kit. The format is cell-based, HBV. Put shortly: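 HepG2.2.15 cells, which constitutively express HBV, were seeded in duplicate and treated with three-fold serial compound dilutions at 1% DMSO final. Secreted HBsAg in culture supernatant was measured semi-quantitatively by chemiluminescence immunoassay. IC50 was extrapolated from dose-response curves.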

The mark [1] stands for this setting: HBsAg secretion reduced by 50% vs no drug control.
Where [2] appears, read: Hepatitis B virus, HepG2.2.15, HBsAg secretion reduced by 50% vs no drug control.

In the case of `CCC1Cc2cc(OCCCOC)c(OC)cc2-c2cc(=O)c(C(=O)O)cn21` (stereo not shown) [Example 39, 6-ethyl-10-methoxy-9-(3-methoxypropoxy)-2-oxo-6,7-dihydrobenzo[a]quinolizine-3-carboxylic acid], half-maximal inhibition under setting [1] (IC50) required 16 nM.

On to `CCOCCOc1cc2c(cc1OC)-c1cc(=O)c(C(=O)O)cn1C(CC)C2` (stereo not shown) [Example 42, 9-(2-ethoxyethoxy)-6-ethyl-10-methoxy-2-oxo-6,7-dihydrobenzo[a]quinolizine-3-carboxylic acid], for which the 50% inhibitory concentration (IC50) (in general, the midpoint of a concentration-inhibition curve) under setting [1] was 57 nM.

As to `CCC1Cc2cc(OCC(F)F)c(OC)cc2-c2cc(=O)c(C(=O)O)cn21` (stereo not shown) [Example 45, 9-(2,2-difluoroethoxy)-6-ethyl-10-methoxy-2-oxo-6,7-dihydrobenzo[a]quinolizine-3-carboxylic acid], the IC50 under setting [1] came out at 104 nM.

Turning to `CCC1Cc2cc(OCC3CCOCC3)c(OC)cc2-c2cc(=O)c(C(=O)O)cn21` (stereo not shown) [Example 48, 6-ethyl-10-methoxy-2-oxo-9-(tetrahydropyran-4-ylmethoxy)-6,7-dihydrobenzo[a]quinolizine-3-carboxylic acid], the midpoint of inhibition under setting [1], the IC50, lay at 24 nM.

With `CCC1Cc2cc(OCCN3CCCC3)c(OC)cc2-c2cc(=O)c(C(=O)O)cn21` (stereo not shown) [Example 51, 6-ethyl-10-methoxy-2-oxo-9-(2-pyrrolidin-1-ylethoxy)-6,7-dihydrobenzo[a]quinolizine-3-carboxylic acid], the IC50 under setting [2] came to 3900 nM.

In turn, `CCC1Cc2cc(OCCCC#N)c(OC)cc2-c2cc(=O)c(C(=O)O)cn21` (stereo not shown) [Example 52, 9-(3-cyanopropoxy)-6-ethyl-10-methoxy-2-oxo-6,7-dihydrobenzo[a]quinolizine-3-carboxylic acid] yielded an IC50 under setting [2] of 170 nM.

Regarding `CCC1Cc2cc(OCCS(C)(=O)=O)c(OC)cc2-c2cc(=O)c(C(=O)O)cn21` (stereo not shown) [Example 53, 6-ethyl-10-methoxy-9-(2-methylsulfonylethoxy)-2-oxo-6,7-dihydrobenzo[a]quinolizine-3-carboxylic acid], the midpoint of inhibition under setting [2], the IC50, lay at 1540 nM.

In turn, `CCC1Cc2cc(OCCN3CCCC3=O)c(OC)cc2-c2cc(=O)c(C(=O)O)cn21` (stereo not shown) [Example 54, 6-ethyl-10-methoxy-2-oxo-9-[2-(2-oxopyrrolidin-1-yl)ethoxy]-6,7-dihydrobenzo[a]quinolizine-3-carboxylic acid] returned an IC50 under setting [2] of 130 nM.

`CC[C@@H]1Cc2cc(OCCN3CCCC3=O)c(OC)cc2-c2cc(=O)c(C(=O)O)cn21` [Example 55, (+)-6-ethyl-10-methoxy-2-oxo-9-[2-(2-oxopyrrolidin-1-yl)ethoxy]-6,7-dihydrobenzo[a]quinolizine-3-carboxylic acid] yielded an IC50 under setting [2] of 720 nM.

As to `CCC1Cc2cc(OCCNS(C)(=O)=O)c(OC)cc2-c2cc(=O)c(C(=O)O)cn21` (stereo not shown) [Example 56, 6-ethyl-9-[2-(methanesulfonamido)ethoxy]-10-methoxy-2-oxo-6,7-dihydrobenzo[a]quinolizine-3-carboxylic acid], half-maximal inhibition under setting [2] (IC50) was put at 3300 nM.

For `CCC1Cc2cc(OCC3(C#N)CC3)c(OC)cc2-c2cc(=O)c(C(=O)O)cn21` (stereo not shown) [Example 57, 9-[(1-cyanocyclopropyl)methoxy]-6-ethyl-10-methoxy-2-oxo-6,7-dihydrobenzo[a]quinolizine-3-carboxylic acid], 170 nM corresponded to half-maximal inhibition under setting [2] (IC50).

The compound `CC1Cc2cccc(Br)c2-c2cc(=O)c(C(=O)O)cn21` (stereo not shown) [Example 60, 11-bromo-6-methyl-2-oxo-6,7-dihydrobenzo[a]quinolizine-3-carboxylic acid] had an IC50 under setting [2] of 1240 nM.

Under setting [2], `C[C@@H]1Cc2cc(Br)ccc2-c2cc(=O)c(C(=O)O)cn21` [Example 61, (+)-9-bromo-6-methyl-2-oxo-6,7-dihydrobenzo[a]quinolizine-3-carboxylic acid] yielded an IC50 of 6020 nM.

`CC1Cc2cc(N3CCN(C(=O)OC(C)(C)C)CC3)ccc2-c2cc(=O)c(C(=O)O)cn21` (stereo not shown) [Example 62, 9-(4-tert-butoxycarbonylpiperazin-1-yl)-6-methyl-2-oxo-6,7-dihydrobenzo[a]quinolizine-3-carboxylic acid] displayed an IC50 under setting [2] of 990 nM.

As for `CC1Cc2cc(N(C)Cc3ccccc3)ccc2-c2cc(=O)c(C(=O)O)cn21` (stereo not shown) [Example 63, 9-[benzyl(methyl)amino]-6-methyl-2-oxo-6,7-dihydrobenzo[a]quinolizine-3-carboxylic acid], the IC50 under setting [2] turned out to be 7180 nM.

Under setting [2], `CNc1cccc2c1-c1cc(=O)c(C(=O)O)cn1C(C)C2` (stereo not shown) [Example 64, 6-methyl-11-(methylamino)-2-oxo-6,7-dihydrobenzo[a]quinolizine-3-carboxylic acid] had an IC50 of 24900 nM.

Turning to `COc1cc2c(cc1Cl)-c1cc(=O)c(C(=O)O)cn1C(C)C2` (stereo not shown) [Example 65, 10-chloro-9-methoxy-6-methyl-2-oxo-6,7-dihydrobenzo[a]quinolizine-3-carboxylic acid], the IC50 under setting [2] worked out at 320 nM.

`COc1cc2c(cc1OC)-c1cc(=O)c(C(=O)O)cn1C(C)C2` (stereo not shown) [Example 66, 9,10-dimethoxy-6-methyl-2-oxo-6,7-dihydrobenzo[a]quinolizine-3-carboxylic acid] showed an IC50 under setting [1] of 430 nM.

The compound `COc1cc2c(cc1OC)C(C)Cn1cc(C(=O)O)c(=O)cc1-2` (stereo not shown) [Example 69, 9,10-dimethoxy-7-methyl-2-oxo-6,7-dihydrobenzo[a]quinolizine-3-carboxylic acid] had an IC50 under setting [2] of 1300 nM.

The compound `CCC1Cc2cc(OC)c(OC)cc2-c2cc(=O)c(C(=O)O)cn21` (stereo not shown) [Example 70, 6-ethyl-9,10-dimethoxy-2-oxo-6,7-dihydrobenzo[a]quinolizine-3-carboxylic acid] returned an IC50 under setting [2] of 70 nM.

In turn, `CC[C@@H]1Cc2cc(OC)c(OC)cc2-c2cc(=O)c(C(=O)O)cn21` [Example 71, (6R)-(+)-6-ethyl-9,10-dimethoxy-2-oxo-6,7-dihydrobenzo[a]quinolizine-3-carboxylic acid] displayed an IC50 under setting [2] of 37 nM.

`CC[C@H]1Cc2cc(OC)c(OC)cc2-c2cc(=O)c(C(=O)O)cn21` [Example 72, (6S)-(−)-6-ethyl-9,10-dimethoxy-2-oxo-6,7-dihydrobenzo[a]quinolizine-3-carboxylic acid] yielded an IC50 under setting [2] of 12000 nM.

`COc1cc2c(cc1C)-c1cc(=O)c(C(=O)O)cn1C(C)C2` (stereo not shown) [Example 73, 9-methoxy-6,10-dimethyl-2-oxo-6,7-dihydrobenzo[a]quinolizine-3-carboxylic acid]: the IC50 under setting [2] was found to be 140 nM.

Compound `CCOc1cc2c(cc1OCC)-c1cc(=O)c(C(=O)O)cn1C(C)C2` (stereo not shown) [Example 74, 9,10-diethoxy-6-methyl-2-oxo-6,7-dihydrobenzo[a]quinolizine-3-carboxylic acid] came in with an IC50 under setting [2] of 140 nM.

With `CCOc1cc2c(cc1O)-c1cc(=O)c(C(=O)O)cn1C(C)C2` (stereo not shown) [Example 75, 9-ethoxy-6-methyl-10-hydroxy-2-oxo-6,7-dihydrobenzo[a]quinolizine-3-carboxylic acid], the IC50 under setting [2] is 1110 nM.

In turn, `CCCOc1cc2c(cc1OCCC)-c1cc(=O)c(C(=O)O)cn1CC2` [Example 77, 2-oxo-9,10-dipropoxy-6,7-dihydrobenzo[a]quinolizine-3-carboxylic acid] yielded an IC50 under setting [2] of 830 nM.

As for `CCCc1cc2c(cc1OC)-c1cc(=O)c(C(=O)O)cn1C(CC)C2` (stereo not shown) [Example 81, 6-ethyl-10-methoxy-2-oxo-9-propyl-6,7-dihydrobenzo[a]quinolizine-3-carboxylic acid], the midpoint of inhibition under setting [2], the IC50, lay at 330 nM.

Consider `COc1ccc2c(c1Cl)CC(C)n1cc(C(=O)O)c(=O)cc1-2` (stereo not shown) [Example 82, 8-chloro-9-methoxy-6-methyl-2-oxo-6,7-dihydrobenzo[a]quinolizine-3-carboxylic acid], for which 5270 nM corresponded to half-maximal inhibition under setting [2] (IC50).
